The term IC50 denotes the point on the concentration scale where inhibition reaches its midpoint.

Chain of EGFR del19 T790M C797S protein in Ba/F3 cells (P00533 with tags, fused parts or gaps C797S/DEL746-750/T790M limits assumed): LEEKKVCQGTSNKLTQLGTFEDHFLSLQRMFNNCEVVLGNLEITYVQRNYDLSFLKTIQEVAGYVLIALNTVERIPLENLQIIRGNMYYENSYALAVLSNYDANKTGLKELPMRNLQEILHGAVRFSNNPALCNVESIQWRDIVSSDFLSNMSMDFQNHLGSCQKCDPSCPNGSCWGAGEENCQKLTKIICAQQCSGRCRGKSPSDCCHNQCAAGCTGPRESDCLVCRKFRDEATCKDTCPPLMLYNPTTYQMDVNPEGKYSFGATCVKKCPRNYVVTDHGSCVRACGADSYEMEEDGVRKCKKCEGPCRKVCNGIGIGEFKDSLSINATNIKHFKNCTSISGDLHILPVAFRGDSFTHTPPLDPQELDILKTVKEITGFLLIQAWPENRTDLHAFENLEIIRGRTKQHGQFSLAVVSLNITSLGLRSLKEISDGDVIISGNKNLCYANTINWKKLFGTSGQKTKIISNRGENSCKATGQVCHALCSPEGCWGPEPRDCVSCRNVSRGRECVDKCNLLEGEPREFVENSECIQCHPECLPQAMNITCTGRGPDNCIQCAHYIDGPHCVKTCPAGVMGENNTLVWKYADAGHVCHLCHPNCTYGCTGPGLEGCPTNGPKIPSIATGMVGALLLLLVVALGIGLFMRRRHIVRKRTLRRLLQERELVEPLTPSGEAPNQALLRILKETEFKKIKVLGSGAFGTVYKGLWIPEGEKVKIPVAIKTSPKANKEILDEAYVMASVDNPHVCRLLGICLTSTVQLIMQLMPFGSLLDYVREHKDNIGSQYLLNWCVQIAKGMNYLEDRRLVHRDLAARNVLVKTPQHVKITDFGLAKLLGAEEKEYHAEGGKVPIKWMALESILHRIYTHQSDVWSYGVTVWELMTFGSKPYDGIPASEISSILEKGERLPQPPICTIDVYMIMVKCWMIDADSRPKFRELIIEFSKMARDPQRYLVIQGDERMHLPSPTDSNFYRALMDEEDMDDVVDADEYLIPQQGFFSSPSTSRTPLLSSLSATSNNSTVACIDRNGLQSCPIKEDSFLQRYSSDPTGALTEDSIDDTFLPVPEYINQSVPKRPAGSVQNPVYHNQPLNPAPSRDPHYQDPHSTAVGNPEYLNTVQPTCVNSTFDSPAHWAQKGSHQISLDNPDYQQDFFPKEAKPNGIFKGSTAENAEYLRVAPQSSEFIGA

In the test the target is EGFR del19 T790M C797S protein in Ba/F3 cells (Homo sapiens, UniProt P00533, C797S/DEL746-750/T790M). The experiment in a line: pEGFR assay (AlphaScreen Surefire, EGFR Tyr1068 phosphorylation). The class given is cell-based. The protocol:
Transduced cells were selected using puromycin. Following selection, IL-3 was withdrawn and IL-3 independent cells cultured. p-EGFR Tyr1068 was determined using the AlphaScreen Surefire pEGF Receptor (Tyr1068) Assay (PerkinElmer, TGRERS). […] Subsequently, 60.000 cells/well in 60 μL were added. Cells were incubated with compound for 4 h at 37° C. […] The mixture was incubated at room temperature with shaking (700 rpm) for 20 min. After centrifugation, 4 μL of the lysate were transferred to Proxiplates. […] Plates were shaken for 1 min (1400 rpm) and incubated for 2 h at room temperature in the dark.
The results of the assay are provided as IC50 values (see table 12).
On the technique in general: In Alpha technology, singlet oxygen from a donor bead excites a nearby acceptor bead.
As to `Cc1ccncc1-c1cc(C(=O)/N=c2\[nH]c3ccccc3n2CC(C)(C)O)ccn1` [I-016], the IC50 is 58 nM.
With `CC(C)(O)Cn1/c(=N/C(=O)c2ccnc(-c3cnccc3Cl)c2)[nH]c2ccccc21` [I-027] the figure was 55 nM; with `CC(C)(O)Cn1/c(=N/C(=O)c2ccnc(-n3cnc4cccnc43)c2)[nH]c2ccccc21` [I-040], 3 nM; with `CC(C)(O)Cn1/c(=N/C(=O)c2ccnc(-c3cnc4cccnn34)c2)[nH]c2ccccc21` [I-041], 1 nM.
With `Cn1cc(-c2cc(C(=O)/N=c3\[nH]c4ccccc4n3C3CCCOC3)ccn2)cn1` (stereo not drawn) [I-043] the figure was 6 nM.
With `Cc1c(-c2cc(C(=O)/N=c3\[nH]c4ccccc4n3C3CCCCC3)ccn2)cnn1C` [I-044] the figure was 2 nM; with `COCCN1CCC(c2ccc3c(c2)[nH]/c(=N\C(=O)c2ccnc(-c4cnn(C)c4C)c2)n3CC(C)(C)O)CC1` [I-045], 2 nM.
Turning to `COCCN1CCC(c2ccc3c(c2)[nH]/c(=N\C(=O)c2ccnc(-c4cccnc4)c2)n3CC(C)(C)O)CC1` [I-046], the IC50 was determined as 2 nM.
Compound `COCCN1CCC(c2ccc3c(c2)[nH]/c(=N\C(=O)c2ccnc(-c4cnn(C)c4)c2)n3CC(C)(C)O)CC1` [I-047] showed an IC50 of 3 nM.
`Cn1cc(-c2cc(C(=O)/N=c3\[nH]c4ccccc4n3C3CCOCC3)ccn2)cn1` [I-049] displayed an IC50 of 7 nM.
With `CC(C)(O)Cn1/c(=N/C(=O)c2ccnc(-c3ccsc3)c2)[nH]c2ccccc21` [I-050] the figure was 24 nM; with `CC(C)(O)Cn1/c(=N/C(=O)c2ccnc(-c3cccs3)c2)[nH]c2ccccc21` [I-051], 27 nM.
The figure for `Cn1cc(-c2cc(C(=O)/N=c3\[nH]c4cc(CN5CCCCC5)ccc4n3CC(C)(C)O)ccn2)cn1` [I-057] is 27 nM; for `Cn1cc(-c2cc(C(=O)/N=c3\[nH]c4cc(CN5CCOCC5)ccc4n3CC(C)(C)O)ccn2)cn1` [I-058] it is 93 nM; for `COc1ccccc1-c1cc(C(=O)/N=c2\[nH]c3cc(CN4CCCCC4)ccc3n2CC(C)(C)O)ccn1` [I-059] it is 3 nM.
With `CCc1ccc2c(c1)[nH]/c(=N\C(=O)c1ccnc(-c3cnn(C)c3)c1)n2CC(C)(C)O` [I-061], the IC50 is 7 nM.
For `CC(C)c1ccc2c(c1)[nH]/c(=N\C(=O)c1ccnc(-c3cnn(C)c3)c1)n2CC(C)(C)O` [I-062], the IC50 was determined as 9 nM.
The figure for `Cn1cc(-c2cc(C(=O)/N=c3\[nH]c4cc(C(C)(C)O)ccc4n3CC(C)(C)O)ccn2)cn1` [I-063] is 74 nM.
The figure for `COCCN(C)c1ccc2c(c1)[nH]/c(=N\C(=O)c1ccnc(-c3cccnc3)c1)n2CC(C)(C)O` [I-065] is 30 nM; for `CC(C)(O)Cn1/c(=N/C(=O)c2ccnc(-c3cccnc3)c2)[nH]c2cc(Cl)ccc21` [I-066] it is 23 nM.
The figure for `CC(C)(O)Cn1/c(=N/C(=O)c2ccnc(-c3cccnc3)c2)[nH]c2cc(CO)ccc21` [I-067] is 16 nM; for `Cn1cc(-c2cc(C(=O)/N=c3\[nH]c4cc(NCC5CCOCC5)ccc4n3CC(C)(C)O)ccn2)cn1` [I-68] it is 14 nM.
In the case of `Cc1cc2c(cc1N1CCN(C(C)C)CC1)[nH]/c(=N\C(=O)c1ccnc(-c3cnn(C)c3)c1)n2CC(C)(C)O` [I-69], the IC50 was 26 nM.
With `Cc1cc2c(cc1N1CCCCC1)[nH]/c(=N\C(=O)c1ccnc(-c3cnn(C)c3)c1)n2CC(C)(C)O` [I-70] the figure was 94 nM; with `COCCCNc1cc2[nH]/c(=N\C(=O)c3ccnc(-c4cnn(C)c4)c3)n(CC(C)(C)O)c2cc1C` [I-71], 86 nM.
As to `C[C@@H]1CN(c2ccc3c(c2)[nH]/c(=N\C(=O)c2ccnc(-c4cnn(C)c4)c2)n3CC(C)(C)O)C[C@H](C)N1C` [I-73], the IC50 came to 81 nM.
The figure for `Cn1cc(-c2cc(C(=O)/N=c3\[nH]c4cc(N5CCC6(CCOCC6)CC5)ccc4n3CC(C)(C)O)ccn2)cn1` [I-74] is 71 nM; for `Cn1cc(-c2cc(C(=O)/N=c3\[nH]c4cc(N5CCOC(C)(C)C5)ccc4n3CC(C)(C)O)ccn2)cn1` [I-75] it is 54 nM.
For `CC(C)(O)Cn1/c(=N/C(=O)c2ccnc(-c3cccnc3)c2)[nH]c2cc(N3CCCCC3)ccc21` [I-77], the IC50 worked out at 76 nM.
The compound `CN(C)c1ccc2c(c1)[nH]/c(=N\C(=O)c1ccnc(-c3cccnc3)c1)n2CC(C)(C)O` [I-79] had an IC50 of 42 nM.
For `CN(C)C1CCN(c2ccc3c(c2)[nH]/c(=N\C(=O)c2ccnc(-c4cnn(C)c4)c2)n3CC(C)(C)O)C1` (stereo not drawn) [I-80], 89 nM corresponded to half-maximal inhibition (IC50).
The figure for `Cn1cc(-c2cc(C(=O)/N=c3\[nH]c4cc(NC[C@@H]5CCCO5)ccc4n3CC(C)(C)O)ccn2)cn1` [I-81] is 9 nM; for `CN(C)CCNc1ccc2c(c1)[nH]/c(=N\C(=O)c1ccnc(-c3cnn(C)c3)c1)n2CC(C)(C)O` [I-82] it is 14 nM; for `Cn1cc(-c2cc(C(=O)/N=c3\[nH]c4cc(NCCN5CCCC5)ccc4n3CC(C)(C)O)ccn2)cn1` [I-83] it is 14 nM.
The figure for `CCc1ccc2[nH]/c(=N\C(=O)c3ccnc(-c4cccnc4)c3)n(CC(C)(C)O)c2c1` [I-84] is 21 nM; for `Cn1cc(-c2cc(C(=O)/N=c3\[nH]c4cc(C5CCOCC5)ccc4n3CC(C)(C)O)ccn2)cn1` [I-85] it is 3 nM.
With `Cn1cc(-c2cc(C(=O)/N=c3\[nH]c4cc(C5CCOC5)ccc4n3CC(C)(C)O)ccn2)cn1` (stereo not drawn) [I-86] the figure was 5 nM; with `CN(C)CCOCCNc1ccc2c(c1)[nH]/c(=N\C(=O)c1ccnc(-c3cnn(C)c3)c1)n2CC(C)(C)O` [I-87], 81 nM; with `Cn1ncc2c(-c3cc(C(=O)/N=c4\[nH]c5ccccc5n4CC(C)(C)O)ccn3)cccc21` [I-88], 11 nM.
Compound `O=C(/N=c1\[nH]c2ccccc2n1[C@H]1CC[C@@H](O)CC1)c1ccnc(-c2cccc3ccnn23)c1` [I-89] showed an IC50 of 8 nM.
With `CC(C)(O)Cn1/c(=N/C(=O)c2ccnc(-c3cccc4ccnn34)c2)[nH]c2ccccc21` [I-90] the figure was 12 nM; with `COc1ncccc1-c1cc(C(=O)/N=c2\[nH]c3ccccc3n2CC(C)(C)O)ccn1` [I-92], 20 nM.
Consider `CN(C)c1cccc(-c2cc(C(=O)/N=c3\[nH]c4ccccc4n3CC(C)(C)O)ccn2)c1` [I-94], for which the midpoint of inhibition, the IC50, lay at 99 nM.
Regarding `Cn1cnc2c(-c3cc(C(=O)/N=c4\[nH]c5ccccc5n4CC(C)(C)O)ccn3)cccc21` [I-95], the midpoint of inhibition, the IC50, lay at 74 nM.
As for `O=C(/N=c1\[nH]c2ccccc2n1[C@H]1CC[C@@H](O)CC1)c1ccnc(-c2csc3ccccc23)c1` [I-96], the IC50 amounted to 39 nM.
The figure for `COc1ccccc1-c1cc(C(=O)/N=c2\[nH]c3ccccc3n2[C@H]2CCCC[C@@H]2O)ccn1` [I-97] is 14 nM; for `CC(C)(O)Cn1/c(=N/C(=O)c2ccnc(-c3cccc4ccoc34)c2)[nH]c2ccccc21` [I-98] it is 6 nM.
For `COc1cccc(-c2cc(C(=O)/N=c3\[nH]c4ccccc4n3CC(C)(C)O)ccn2)c1` [I-99], the IC50 worked out at 42 nM.
The figure for `CNC(=O)c1cccc(-c2cc(C(=O)/N=c3\[nH]c4ccccc4n3CC(C)(C)O)ccn2)c1` [I-100] is 76 nM.
`CN(C)C(=O)c1cccc(-c2cc(C(=O)/N=c3\[nH]c4ccccc4n3CC(C)(C)O)ccn2)c1` [I-103] yielded a half-maximal inhibitory concentration (IC50) of 43 nM.
The figure for `CC(C)(O)Cn1/c(=N/C(=O)c2ccnc(-c3cccc(O)c3)c2)[nH]c2ccccc21` [I-104] is 12 nM; for `CC(C)(O)Cn1/c(=N/C(=O)c2ccnc(-c3ccccn3)c2)[nH]c2ccccc21` [I-106] it is 97 nM.
As to `CN(C)Cc1cccc(-c2cc(C(=O)/N=c3\[nH]c4ccccc4n3C3CCCCC3)ccn2)c1` [I-117], the concentration for half-maximal inhibition (IC50) was 12 nM.
In the case of `COc1ccccc1-c1cc(C(=O)/N=c2\[nH]c3ccccc3n2[C@H]2CCC[C@H](O)C2)ccn1` [I-119], the midpoint of inhibition, the IC50, lay at 3 nM.
As for `COc1ccccc1-c1cc(C(=O)/N=c2\[nH]c3cc(C4CCNCC4)ccc3n2[C@H]2CC[C@@H](O)CC2)ccn1` [I-120], the IC50 amounted to 3 nM.
`COc1ccccc1-c1cc(C(=O)/N=c2\[nH]c3cc(C4CCN(C(C)=O)CC4)ccc3n2[C@H]2CC[C@@H](O)CC2)ccn1` [I-121] came in with an IC50 of 2 nM.
With `COc1ccccc1-c1cc(C(=O)/N=c2\[nH]c3ccccc3n2[C@@H]2CCCOC2)ccn1` [I-122] the figure was 2 nM.
As to `COc1ccccc1-c1cc(C(=O)/N=c2\[nH]c3ccccc3n2[C@H]2CCCOC2)ccn1` [I-123], inhibition was half-maximal at 2 nM (IC50).
`COc1ccccc1-c1cc(C(=O)/N=c2\[nH]c3cc(C4CCN(C)CC4)ccc3n2[C@H]2CC[C@@H](O)CC2)ccn1` [I-124] gave an IC50 of 2 nM.
With `O=C(/N=c1\[nH]c2ccccc2n1[C@H]1CC[C@@H](O)CC1)c1ccnc(-n2ccc3ccccc32)c1` [I-125] the figure was 11 nM; with `COc1ccccc1-c1cc(C(=O)/N=c2\[nH]c3ccccc3n2[C@H]2CCC[C@@H](O)C2)ccn1` [I-127], 2 nM.
The figure for `COc1ccccc1-c1cc(C(=O)/N=c2\[nH]c3ccccc3n2[C@@H]2CCC[C@H](O)C2)ccn1` [I-129] is 5 nM; for `CNC(=O)Cc1ccc2c(c1)[nH]/c(=N\C(=O)c1ccnc(-c3cccnc3)c1)n2CC(C)(C)O` [I-131] it is 92 nM.
`COc1ccccc1-c1cc(C(=O)/N=c2\[nH]c3ccccc3n2[C@@H]2CCCC[C@H]2O)ccn1` [I-132] gave an IC50 of 7 nM.
With `Cn1cc(-c2cc(C(=O)/N=c3\[nH]c4ccccc4n3[C@H]3CC[C@@H](O)CC3)cc(F)n2)cn1` [I-133] the figure was 1 nM.
With `Cc1ccc2c(c1)[nH]/c(=N\C(=O)c1ccnc(-c3cnn(C)c3)c1)n2[C@H]1CC[C@@H](O)CC1` [I-134] the figure was 1 nM.

(Values after patent US11174245B2, “Benzimidazole compounds and derivatives as EGFR inhibitors” (Boehringer Ingelheim International GmbH, priority 2018, dated 2021).)
